Results from ChEMBL document CHEMBL1146422, “Isolation and structure of the human cancer cell growth inhibitory cyclodepsipeptide dolastatin 16” (1997).
≈ marks a conversion by molar mass, not a printed value. *1 amine or outer side, *2 acyl side, *3 side chain or, on linkers, in order; H or OH if unused. Where a SMILES comes first, the peptide text is derived from it. [ ]: non-standard residue; d: D form. X1 = CC(Cc1ccccc1)C(N[*:1])C(=O)[*:2]; X2 = CC(C)C(N[*:1])C(C)C(=O)[*:2]; dNMeV = CN[C@@H](C(=O)O)C(C)C; dHiv = CC(C)[C@@H](O)C(=O)O; Lac = C[C@H](O)C(=O)O

How the values were obtained:
Format in all cases: functional
[1] = tested on: NCI-H460; test: Growth inhibition of human NCI-H460 cells
[2] = tested on: MCF7; test: Growth inhibition of human MCF7 cells
[3] = tested on: MDA-N; test: Growth inhibition of human MDA-N cells
[4] = tested on: MDA-MB-435; test: Growth inhibition of human MDA-MB-435 cells
[5] = tested on: KM-20L2; test: Growth inhibition of human KM20L2 cells
[6] = tested on: SK-MEL-5; test: Growth inhibition of human SK-MEL-5 cells
[7] = tested on: SF-295; test: Growth inhibition of human SF295 cells

- GI50 [1]: 0.96 ng/mL (≈ 1.09 nM)
- GI50 [2]: 47.9 nM
- GI50 [4]: 34.7 nM
- GI50 [6]: 3.3 ng/mL (≈ 3.75 nM)
SMILES: CC(C)C1NC(=O)[C@@H]2CCCN2C(=O)C(C(C)Cc2ccccc2)NC(=O)[C@@H]2CCCN2C(=O)[C@@H](C(C)C)N(C)C(=O)[C@@H](C(C)C)OC(=O)[C@@H]2CCCN2C(=O)[C@H](C)OC(=O)C1C (some centres not stated) [DOLASTATIN 16] (cyclo([Lac]P[dHiv][dNMeV]P[X1]P[X2]))
- GI50 [3]: 28.8 nM
- GI50 [5]: 1.2 ng/mL (≈ 1.37 nM)
- GI50 [7]: 5.2 ng/mL (≈ 5.92 nM)
